Assay results taken from patent publication US8981094B2, “Piperidine/piperazine derivatives” (Janssen Pharmaceutica N.V., priority 2007, dated 2015).

Tests used:
human DGAT1 = target: T1, human DGAT1 (Homo sapiens, UniProt O75907); assay: Inhibition of DGAT1 activity, FlashPlate assay with DGAT1 membrane preparations and substrate micelles; type: biochemical; details: pIC50 = -logIC50, IC50 values expressed in M
T1 construct: FLAG (N); made in house; host or cells: SF9 insect cells (pFastBac baculovirus); total cell membranes
T1 sequence (O75907 1-488): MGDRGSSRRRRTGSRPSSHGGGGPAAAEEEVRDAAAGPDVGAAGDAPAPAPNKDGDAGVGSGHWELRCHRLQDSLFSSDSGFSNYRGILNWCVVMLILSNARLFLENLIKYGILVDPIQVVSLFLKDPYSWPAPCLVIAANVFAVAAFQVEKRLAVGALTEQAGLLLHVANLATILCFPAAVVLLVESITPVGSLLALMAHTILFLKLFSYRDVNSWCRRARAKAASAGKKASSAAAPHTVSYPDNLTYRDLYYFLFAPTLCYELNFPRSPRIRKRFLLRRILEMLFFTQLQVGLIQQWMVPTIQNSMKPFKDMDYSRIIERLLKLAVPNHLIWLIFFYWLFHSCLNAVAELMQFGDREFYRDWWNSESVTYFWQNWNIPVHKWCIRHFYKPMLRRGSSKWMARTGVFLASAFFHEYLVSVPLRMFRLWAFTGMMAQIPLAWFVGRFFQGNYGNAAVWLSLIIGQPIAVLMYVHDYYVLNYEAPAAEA
In short: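 FLAG-tagged human DGAT1 membranes (expressed in Sf9 cells) were incubated 120 min at 37° C. in 50 mM Tris-HCl pH 7.4 with 150 mM MgCl2, 1 mM EDTA, 0.2% BSA, 50 μM DAG micelles (PC/PS) and 8.4 μM [^3H]-oleoylCoA. The reaction was stopped with N-ethylmaleimide and read as FlashPlate radioluminescence. Responses were normalized to enzyme/no-enzyme controls to fit dose-response curves.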

Compound	IC50 (human DGAT1)	melting point
COc1ccc(CNC(=O)c2ccc(N3CCN(C(=O)Nc4c(Cl)cc(CC(=O)N5CCN(C)CC5)cc4Cl)CC3)cc2)cc1 [Compound 228]	19.1 nM	220.01 °C
CSc1ccccc1NC(=O)N1CCN(c2ccc(NC(=O)CCCc3ccccc3)cc2)CC1 [Compound 79]	1450 nM	127.1 °C
Cc1cc(C)c(NC(=O)N2CCN(c3ccc(NC(=O)CCCc4ccccc4)cc3)CC2)c(C)c1 [Compound 68]	12.3 nM	223 °C
COc1ccc(CN(CCC(=O)Nc2ccc(N3CCN(C(=O)Nc4c(Cl)cccc4Cl)CC3)cc2)S(=O)(=O)c2ccccc2[N+](=O)[O-])cc1 [Compound 173]	34.7 nM	197 to 199 °C
O=C(CCNCc1ccc(F)cc1)Nc1ccc(N2CCN(C(=O)Nc3c(Cl)cccc3Cl)CC2)cc1 [Compound 174]	347 nM	192 to 193 °C
COC(=O)c1ccccc1NC(=O)N1CCN(c2ccc(NC(=O)CCCc3ccccc3)cc2)CC1 [Compound 92]	7410 nM	165.4 °C
O=C(CCCc1ccccc1)Nc1ccc(N2CCN(C(=O)Nc3c(F)c(F)c(F)c(F)c3F)CC2)cc1 [Compound 87]	3310 nM	181.2 °C
O=C(CCCc1ccccc1)Nc1ccc(N2CCN(C(=O)Nc3ccccc3F)CC2)cc1 [Compound 94]	295 nM	177.3 °C
Cc1cc(Cl)c(CC(=O)N2CCN(c3ccc(C(=O)NCc4cccc(N5CCCC5)c4)cc3)CC2)c(Cl)n1 [Compound 242]	129 nM	172.73 °C
COc1ccc(CC(=O)Nc2ccc(N3CCN(C(=O)Nc4c(Cl)cc(C[N+]5([O-])CCCC5)cc4Cl)CC3)cc2)cc1 [Compound 299]	19.1 nM	168.24 °C
O=C(NCc1cccc2ccccc12)c1ccc(N2CCN(C(=O)Cc3c(Cl)cccc3Cl)CC2)cc1 [Compound 229]	30.9 nM	242.15 °C
O=C(CCCc1ccccc1)Nc1ccc(N2CCN(C(=O)Nc3ccccc3OC(F)(F)F)CC2)cc1 [Compound 84]	1480 nM	162.2 °C
CS(=O)(=O)N1CCN(CCC(=O)Nc2ccc(N3CCN(C(=O)Nc4c(Cl)cccc4Cl)CC3)cc2)CC1 [Compound 172]	603 nM	250 to 252 °C
COc1ccc(CNC(=O)c2ccc(N3CCN(C(=O)Nc4c(Cl)cc(CN(C(C)C)C(C)C)cc4Cl)CC3)cc2)cc1 [Compound 240]	81.3 nM	208.87 °C
Cc1cc(Br)cc(C)c1NC(=O)N1CCN(c2ccc(NC(=O)CCCc3ccccc3)cc2)CC1 [Compound 61]	38 nM	241.7 °C
O=C(NCC1CCOCC1)c1ccc(N2CCN(C(=O)Nc3c(Cl)cc(CN4CCCC4)cc3Cl)CC2)cc1 [Compound 264]	3980 nM	223.77 °C
CN(CC(=O)Nc1ccc(N2CCN(C(=O)Nc3c(Cl)cccc3Cl)CC2)cc1)C(=O)NC(C)(C)C [Compound 165]	64.6 nM	214 to 215 °C
CCOCCNC(=O)c1ccc(N2CCN(C(=O)Cc3c(Cl)cccc3Cl)CC2)cc1 [Compound 262]	3240 nM	175.07 °C
CC(c1cc(Cl)c(NC(=O)N2CCN(c3ccc(NC(=O)CCCc4ccccc4)cc3)CC2)c(Cl)c1)N1CCCCC1 (stereo not drawn) [Compound 56]	16.2 nM	218 °C
COc1ccccc1CNC(=O)N1CCN(c2ccc(NC(=O)CCCc3ccccc3)cc2)CC1 [Compound 71]	1070 nM	183.1 °C
COc1ccc(COC(=O)CCCC(=O)Nc2ccc(N3CCN(C(=O)Nc4c(Cl)cc(CN5CCCCC5)cc4Cl)CC3)cc2)cc1 [Compound 285]	9.12 nM	178 to 179 °C
Cc1ccc(NC(=O)N2CCN(c3ccc(NC(=O)CCCc4ccccc4)cc3)CC2)c(C)c1 [Compound 66]	26.9 nM	181.7 °C
COc1ccc(CCNC(=O)c2ccc(N3CCN(C(=O)Nc4c(Cl)cc(CN5CCCC5)cc4Cl)CC3)cc2F)cc1 [Compound 246]	151 nM	235 to 237 °C
O=C(CCCc1ccccc1)Nc1ccc(N2CCN(C(=O)Nc3c(Cl)ccc4c3CCO4)CC2)cc1 [Compound 12]	182 nM	209.8 °C
O=C(Nc1ccc(N2CCN(C(=O)Nc3c(Cl)cccc3Cl)CC2)cc1)C(O)CCc1ccccc1 (stereo not drawn) [Compound 48]	148 nM	253.4 °C
CC(c1cc(Cl)c(NC(=O)N2CCN(c3ccc(NC(=O)CCCc4ccccc4)cc3)CC2)c(Cl)c1)N(C)C (stereo not drawn) [Compound 288]	10 nM	191.86 °C

Compound	IC50 (human DGAT1)	melting point
Cc1ccc(CNCC(=O)Nc2ccc(N3CCN(C(=O)Nc4c(Cl)cccc4Cl)CC3)cc2)c(C)c1 [Compound 181]	75.9 nM	163 to 165 °C
O=C(CCCc1ccccc1)Nc1ccc(N2CCN(C(=S)Nc3c(Cl)cccc3Cl)CC2)cc1 [Compound 189]	12 nM	238.7 °C
O=C(NCc1cccnc1)c1ccc(N2CCN(C(=O)Cc3c(Cl)cccc3Cl)CC2)cc1 [Compound 257]	661 nM	242.27 °C
COCCOCC(=O)Nc1ccc(N2CCN(C(=O)Nc3c(Cl)cccc3Cl)CC2)cc1 [Compound 45]	2340 nM	178.7 °C
CC(O)c1cc(Cl)c(NC(=O)N2CCN(c3ccc(N(C)C(=O)CCCc4ccccc4)cc3)CC2)c(Cl)c1 (stereo not drawn) [Compound 335]	479 nM	179.55 °C
O=C(CCc1cccnc1)Nc1ccc(N2CCN(C(=O)Nc3c(Cl)cccc3Cl)CC2)cc1 [Compound 198]	229 nM	260 to 261 °C
O=C(CCCc1ccccc1)Nc1ccc(N2CCN(C(=O)Nc3c(F)cc(Br)cc3Br)CC2)cc1 [Compound 63]	30.9 nM	218.6 °C
O=C(CCCc1ccccc1)Nc1ccc(N2CCN(/C=C/C(=O)c3c(Cl)cccc3Cl)CC2)cc1 [Compound 18]	120 nM	178.2 °C
COc1cc(CNC(=O)c2ccc(N3CCN(C(=O)Cc4c(Cl)cccc4Cl)CC3)cc2)cc(OC)c1 [Compound 225]	9.55 nM	212.29 °C
O=C(CCCc1ccccc1)Nc1ccc(N2CCN(C(=O)Nc3c(Cl)c(Cl)cc(Cl)c3Cl)CC2)cc1 [Compound 88]	479 nM	225.1 °C
COc1ccc(CC(=O)Nc2ccc(N3CCN(C(=O)Nc4c(Cl)cc(O)cc4Cl)CC3)cc2)cc1 [Compound 16]	4.68 nM	183 to 184 °C
Cc1ccc(NCCC(=O)Nc2ccc(N3CCN(C(=O)Nc4c(Cl)cccc4Cl)CC3)cc2)c(C)c1 [Compound 298]	17.4 nM	241 to 242 °C
O=C(CCCc1ccccc1)Nc1ccc(N2CCN(C(=O)Nc3ccccc3Br)CC2)cc1 [Compound 95]	126 nM	147.4 °C
O=C(CCCc1ccccc1)Nc1ccc(N2CCN(C(=O)Nc3ccccc3I)CC2)cc1 [Compound 78]	126 nM	153.3 °C
O=C(NCc1ccco1)c1ccc(N2CCN(C(=O)Cc3c(Cl)cccc3Cl)CC2)cc1 [Compound 258]	759 nM	238.35 °C
COc1ccc(CNC(=O)c2ccc(N3CCN(C(=O)Nc4c(Cl)cc(CN5CCCC5)cc4Cl)CC3)cc2)cc1 [Compound 232]	46.8 nM	222.04 °C
CCc1ccccc1NC(=O)N1CCN(c2ccc(NC(=O)CCCc3ccccc3)cc2)CC1 [Compound 93]	240 nM	189 °C
O=C(NCc1ccncc1)c1ccc(N2CCN(C(=O)Cc3c(Cl)cccc3Cl)CC2)cc1 [Compound 251]	191 nM	239.51 °C
CC(C)c1ccccc1NC(=O)N1CCN(c2ccc(NC(=O)CCCc3ccccc3)cc2)CC1 [Compound 90]	589 nM	214.2 °C
CN(C(=O)CCCc1ccccc1)c1ccc(N2CCN(C(=O)Nc3c(Cl)cccc3Cl)CC2)cc1 [Compound 42]	6920 nM	175.2 °C
COc1cc(Cl)c(NC(=O)N2CCN(c3ccc(NC(=O)CCCc4ccccc4)cc3)CC2)c(OC)c1 [Compound 188]	74.1 nM	208 to 210 °C
COc1cc(Cl)c(NC(=O)N2CCN(c3ccc(NC(=O)CNc4ccc(C)cc4C)cc3)CC2)c(Cl)c1 [Compound 31]	4.47 nM	175 to 176 °C
CC(O)c1cc(Cl)c(NC(=O)N2CCC(c3ccc(NC(=O)CCCc4ccccc4)cc3)CC2)c(Cl)c1 (stereo not drawn) [Compound 273]	3.72 nM	203 to 204 °C
O=C(CCCc1ccccc1)Nc1ccc(N2CCN(C(=O)Nc3c(F)cc(F)cc3F)CC2)cc1 [Compound 82]	75.9 nM	173.6 °C
Cc1ccccc1CNC(=O)c1ccc(N2CCN(C(=O)Cc3c(Cl)cccc3Cl)CC2)cc1 [Compound 233]	50.1 nM	244.09 °C
